From US6887876B2, “Benzamidine derivatives” (Ortho-McNeil Pharmaceutical, Inc., priority 2000, dated 2005) come the findings set out here.

The term Ki denotes the equilibrium dissociation constant of an inhibitor or competing ligand from its target. As usually defined, the inhibition is the relative decrease from the control value, in per cent. Usually inhibition in vivo stands for the share of the control response that was lost under treatment.

Where two headings read alike, the source gives them in different places. Bounds are passed on as bounds.

One assay addresses μ-opioid receptor (Rattus norvegicus, UniProt P33535). Nature of the assay: Rat brain μ-opioid receptor binding assay ([3H]DAMGO).
Assay [1] addresses δ-opioid receptor (Rattus norvegicus, UniProt P33533). Kind of assay: Rat brain δ-opioid receptor binding assay ([3H]DPDPE).
Assay [2] has as its target T1, δ-opioid receptor (Homo sapiens, UniProt P41143).
T1 construct: purchased Receptor Biology, Baltimore, Md; host or cells: CHO cells (membranes)
Kind of assay: Scintillation screening assay for δ-opioid receptor binding ([3H]bremazocine). As to conditions: cloned human receptor in CHO cell membranes, [3H]bremazocine 2.4 nM; for inhibition at 25 µM: read-out: δ-Opioid Receptor Binding (% Inhibition), % I @ 25 μM. An excerpt: Scintillation Screening Assay for δ-Opioid Receptor Binding
This is a receptor based screen to detect the competitive binding of test compounds at the δ-opioid receptor against the radioligand, [^3H]bremazocine (S.A.=25.5 Cl/mmol, Dupont/NEN, Cambridge, Mass.). Unknown compounds that bind to the same receptor as the radioligand will compete for the receptor and reduce the amount of radioligand which binds to the receptor. This is detected as a decreased scintillation signal from that particular incubation. The greater affinity an unknown has for the receptor, the larger the observed decrease in […] to the receptor; thus the assay is in the format of an inhibition study.
The receptor is a cloned human cDNA expressed in mammalian CHO cells. Membranes prepared from these cells are purchased from Receptor Biology, Baltimore, Md. The reaction buffer is composed as follows: HEPES (50 mM final), MgCl.6H2O (5 mM final), o-phenanthroline (20 mg/l), aprotinin (10 mg/l), Pefabloc SC (250 mg/l), leupeptin (0.5 mg/l), pepstatin A (0.7 mg/l), trypsin inhibitor (25 mg/l), chymostatin (10 mg/l), pH=7.2. Naloxone, 10 uM, is used to define non-specific binding. The assay employs filtration to capture receptor and bound ligand.
The receptor (membrane) preparation (28 ug protein) is allowed to incubate with the opioid receptor radioligand ([^3H]bremazocine, 2.4 nM) in 96-well plates until equilibrium is reached (>2 hr). Following incubation with the radioligand at 23° C., the well contents are filtered onto 96-well Whatman GF/C filter plates using a Packard cell harvester. Radioligand bound to the receptor also remains on the filter. The filters are rinsed three times with 0.5 mL of physiological saline (0.9% NaCl) to remove any unbound radioligand from the filter. Filters are dried and scintillation fluid is then added to the filters which emits light in proportion to the amount of radioactivity on the filter which is determined using an Packard Topcount scintillation counter. Data are reported as percent inhibition of control binding.

In assay [3] the test system is acetylcholine bromide-induced abdominal constriction response. Nature of the assay: Mouse acetylcholine bromide-induced abdominal constriction assay (MAIT). The format is in vivo. As to conditions: po, 0.5 h, 150 μmole/Kg p.o., acetylcholine bromide 5.5 mg/kg i.p. 30 min later. As to the method: The mouse acetylcholine-induced abdominal constriction assay, as described by Collier et al. in […]., 32: 295-310, 1968 with minor modifications, was used to assess analgesic potency of the compounds of formula (I). The test drugs or appropriate vehicles were administered orally (p.o.) and 30 min later the animal received an intraperitoneal (i.p.) injection of 5.5 mg/kg acetylcholine bromide (Matheson, Coleman and Bell, East Rutherford, N.J.). The mice were then placed in groups of three into glass bell jars and observed for a ten min observation period for the occurrence of an abdominal constriction response (defined as a wave of constriction and elongation passing caudally along the abdominal wall, accompanied by a twisting of the trunk and followed by extension of the hind limbs). For compounds of the present invention, the percent inhibition of this response to a nociceptive stimulus (equated to % analgesia) was calculated as follows: [formula]

The mark [4] stands for this setting: rat forebrain preparation, [3H]DAMGO, 25° C., read-out: μ-Opioid Receptor Binding (Ki nM).
[5] abbreviates: rat forebrain preparation, [3H]DPDPE, 25° C., read-out: δ-Opioid Receptor Binding (Ki nM).

T1 sequence (P41143 whole entry): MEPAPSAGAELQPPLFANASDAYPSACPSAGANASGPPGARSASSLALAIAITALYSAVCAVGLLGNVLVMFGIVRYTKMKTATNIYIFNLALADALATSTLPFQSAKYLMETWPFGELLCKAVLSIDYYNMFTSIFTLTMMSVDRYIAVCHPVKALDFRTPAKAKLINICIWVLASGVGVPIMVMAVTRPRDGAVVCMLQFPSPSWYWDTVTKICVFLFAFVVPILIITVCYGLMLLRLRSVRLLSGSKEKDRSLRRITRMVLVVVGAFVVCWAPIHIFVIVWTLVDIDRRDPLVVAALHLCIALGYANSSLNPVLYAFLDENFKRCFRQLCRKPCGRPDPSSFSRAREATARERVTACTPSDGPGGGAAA
Sequence of δ-opioid receptor (Rattus norvegicus, UniProt P33533) (P33533 whole entry): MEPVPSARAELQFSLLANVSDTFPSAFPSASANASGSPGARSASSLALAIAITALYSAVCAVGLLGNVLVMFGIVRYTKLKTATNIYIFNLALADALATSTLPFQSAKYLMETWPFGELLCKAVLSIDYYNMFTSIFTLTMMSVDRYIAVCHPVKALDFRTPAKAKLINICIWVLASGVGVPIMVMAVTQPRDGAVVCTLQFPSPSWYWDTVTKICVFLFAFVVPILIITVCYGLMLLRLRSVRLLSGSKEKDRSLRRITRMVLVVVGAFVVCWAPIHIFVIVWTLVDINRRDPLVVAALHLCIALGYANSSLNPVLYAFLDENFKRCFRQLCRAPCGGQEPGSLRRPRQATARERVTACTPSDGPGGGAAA
Sequence of μ-opioid receptor (P33535 whole entry): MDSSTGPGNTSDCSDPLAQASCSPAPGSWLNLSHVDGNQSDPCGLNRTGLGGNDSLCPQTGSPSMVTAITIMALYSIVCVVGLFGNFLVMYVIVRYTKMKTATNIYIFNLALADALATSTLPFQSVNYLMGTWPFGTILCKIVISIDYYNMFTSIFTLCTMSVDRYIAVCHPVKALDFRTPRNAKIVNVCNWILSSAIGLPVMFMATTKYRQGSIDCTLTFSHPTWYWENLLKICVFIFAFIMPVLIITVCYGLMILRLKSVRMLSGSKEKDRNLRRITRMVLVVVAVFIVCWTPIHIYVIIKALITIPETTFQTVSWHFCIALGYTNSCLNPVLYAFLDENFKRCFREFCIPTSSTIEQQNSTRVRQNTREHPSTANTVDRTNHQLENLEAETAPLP

Consider `CCN1CCN(C(=Nc2ccccc2)c2ccc(C(=O)N(CC)CC)cc2)CC1` [Compound 1, N,N-diethyl-4-[(4-ethyl-1-piperazinyl)(phenylimino)methyl]-benzamide], for which the inhibition constant Ki at μ-opioid receptor was above 10000 nM; on δ-opioid receptor [1], 16 nM. The inhibition at 25 µM on δ-opioid receptor [2] was determined as 106%. This compound yielded an inhibition in vivo at 150 µmol/kg in assay [3] of 40%.

With `CCN1CCN(C(=Nc2ccccc2)c2ccc(C(=O)OC)cc2)CC1` [Compound 46, 4-[(4-ethyl-1-piperazinyl)(phenylimino)methyl]-benzoic acid methyl ester], on δ-opioid receptor [2], the inhibition at 25 µM is 94%. In assay [3], this compound showed an inhibition in vivo at 150 µmol/kg of 26.7%.

With `CCCN(CCC)C(=O)c1ccc(C(=Nc2cccc(F)c2)N2CCN(CC)CC2)cc1` [Compound 8, 4-[(4-ethyl-1-piperazinyl)[(3-fluorophenyl)imino]methyl]-N,N-dipropyl-benzamide], the Ki at μ-opioid receptor came out at 6890 nM; on δ-opioid receptor [1], 60.7 nM. The inhibition at 25 µM on δ-opioid receptor [2] worked out at 97%. In addition, the inhibition in vivo at 150 µmol/kg in assay [3] came to 7.1%.

Turning to `CCCN(CCC)C(=O)c1ccc(C(=Nc2ccccc2F)N2CCN(CC)CC2)cc1` [Compound 11, 4-[(4-ethyl-1-piperazinyl)[(2-fluorophenyl)imino]methyl]-N,N-dipropyl-benzamide], the Ki was above 10000 nM at μ-opioid receptor (setting [4]) and 256 nM at δ-opioid receptor [1] (setting [5]). At δ-opioid receptor [2], the inhibition at 25 µM was determined as 98%.

Take `CCN1CCN(C(=Nc2cc(Cl)cc(Cl)c2)c2ccc(C(=O)N(CC)CC)cc2)CC1` [Compound 13, 4-[[(3,5-dichlorophenyl)imino](4-ethyl-1-piperazinyl)methyl]-N,N-diethyl-benzamide]: the Ki was above 10000 nM at μ-opioid receptor (setting [4]) and 277 nM on δ-opioid receptor [1] (setting [5]). At δ-opioid receptor [2], the inhibition at 25 µM worked out at 100%.

For `CCN(CC)C(=O)c1ccc(C(=Nc2ccccc2Cl)N2CCN(Cc3ccccc3)CC2)cc1` [Compound 20, 4-[[(2-chlorophenyl)imino][4-(phenylmethyl)-1-piperazinyl]methyl]-N,N-diethyl-benzamide], the Ki on μ-opioid receptor was above 10000 nM; at δ-opioid receptor [1], 11.8 nM. In assay [3], this compound showed an inhibition in vivo at 150 µmol/kg of 23.1%.

As for `CCCN1CCN(C(=Nc2cccc(Cl)c2)c2ccc(C(=O)N(CC)CC)cc2)CC1` [Compound 14, 4-[[(3-chlorophenyl)imino](4-propyl-1-piperazinyl)methyl]-N,N-diethyl-benzamide], the values for the Ki on μ-opioid receptor and on δ-opioid receptor [1] were 9530 nM and 177 nM, respectively. Moreover, on δ-opioid receptor [2], the inhibition at 25 µM turned out to be 101%.

Take `CCN1CCN(C(=Nc2cccc(Cl)c2)c2ccc(C(=O)OC)cc2)CC1` [Compound 29, 4-[[(3-chlorophenyl)imino](4-ethyl-1-piperazinyl)methyl]-benzoic acid methyl ester]: the Ki at μ-opioid receptor (setting [4]) was above 10000 nM; at δ-opioid receptor [1] (setting [5]), 283 nM. Further, the inhibition at 25 µM on δ-opioid receptor [2] came out at 97%.

In the case of `CCCN1CCN(C(=Nc2ccccc2Cl)c2ccc(C(=O)OC)cc2)CC1` [Compound 34, 4-[[(2-chlorophenyl)imino](4-propyl-1-piperazinyl)methyl]-benzoic acid methyl ester], the inhibition constant Ki at μ-opioid receptor was 2070 nM; at δ-opioid receptor [1], 87.3 nM. On δ-opioid receptor [2], the inhibition at 25 µM is 90%.

For the compound “4-[[(2-chlorophenyl)imino](4-ethyl-1-piperazinyl)methyl]-benzoic acid methyl ester [Compound 31]”, the results for the inhibition constant (Ki) on μ-opioid receptor (setting [4]) and on δ-opioid receptor [1] (setting [5]) were above 10000 nM and 222 nM, respectively. Besides, the “δ-Opioid Receptor Binding (% Inhibition), % I @ 25 μM” value on δ-opioid receptor [2] was found to be 100%.

With `CCCN(CCC)C(=O)c1ccc(C(=Nc2ccccc2Cl)N2CCN(CC)CC2)cc1` [Compound 7, 4-[[(2-chlorophenyl)imino](4-ethyl-1-piperazinyl)methyl]-N,N-dipropyl-benzamide], the values for the Ki on μ-opioid receptor (setting [4]) and on δ-opioid receptor [1] (setting [5]) were 3930 nM and 292 nM, respectively. Besides, the inhibition at 25 µM at δ-opioid receptor [2] was 97%.

For `CCN1CCN(C(=Nc2ccccc2Cl)c2ccc(C(=O)N(CC)CC)cc2)CC1` [Compound 6, 4-[[(2-chlorophenyl)imino](4-ethyl-1-piperazinyl)methyl]-N,N-diethyl-benzamide], the Ki on μ-opioid receptor was above 10000 nM; at δ-opioid receptor [1] it was 91.1 nM. The inhibition at 25 µM at δ-opioid receptor [2] worked out at 103%. For the same compound, the inhibition in vivo at 150 µmol/kg in assay [3] was determined as 20%.

Take `C=CCN1C[C@H](C)N(/C(=N/c2ccccc2)c2ccc(C(=O)N(CC)CC)cc2)C[C@H]1C` [Compound 16, 4-[(E)-[(2S,5R)-2,5-dimethyl-4-(2-propenyl)piperazinyl](phenylimino)methyl]-N,N-diethyl-benzamide]: the inhibitory constant (Ki) at μ-opioid receptor (setting [4]) worked out at 4330 nM; at δ-opioid receptor [1] (setting [5]) it was 170 nM. For the same compound, the inhibition in vivo at 150 µmol/kg in assay [3] is 50%.

In the case of `CCN1CCN(C(=Nc2cccc(Br)c2)c2ccc(C(=O)OC)cc2)CC1` [Compound 30, 4-[[(3-bromophenyl)imino](4-ethyl-1-piperazinyl)methyl]-benzoic acid methyl ester], the Ki at μ-opioid receptor (setting [4]) is above 10000 nM; on δ-opioid receptor [1] (setting [5]) it was 638 nM. Also, the inhibition at 25 µM at δ-opioid receptor [2] was determined as 99%.

`CCN1CCN(C(=Nc2ccccc2OC)c2ccc(C(=O)OC)cc2)CC1` [Compound 48, 4-[(4-ethyl-1-piperazinyl)[(2-methoxyphenyl)imino]methyl]-benzoic acid methyl ester]: the inhibition at 25 µM on δ-opioid receptor [2] worked out at 60%.

Consider `C=CCN1CCN(C(=Nc2ccccc2Cl)c2ccc(C(=O)N(CC)CC)cc2)CC1` [Compound 19, 4-[[(2-chlorophenyl)imino][4-(2-propenyl)-1-piperazinyl]methyl]-N,N-diethyl-benzamide], for which the values for the Ki on μ-opioid receptor and on δ-opioid receptor [1] were 7600 nM and 20.5 nM, respectively. Besides, the inhibition in vivo at 150 µmol/kg in assay [3] is 40%.

Turning to `CCN1CCN(C(=Nc2cccc(F)c2)c2ccc(C(=O)OC)cc2)CC1` [Compound 32, 4-[(4-ethyl-1-piperazinyl)[(3-fluorophenyl)imino]methyl]-benzoic acid methyl ester], the values for the Ki on μ-opioid receptor and on δ-opioid receptor [1] were above 10000 nM and 259 nM, respectively. The inhibition at 25 µM on δ-opioid receptor [2] came to 97%.

Regarding `CCN(CC)C(=O)c1ccc(C(=Nc2ccccc2Cl)N2CCN(CCc3cccs3)CC2)cc1` [Compound 21, 4-[[(2-chlorophenyl)imino][4-[2-(2-thienyl)ethyl]-1-piperazinyl]methyl]-N,N-diethyl-benzamide], the Ki was above 10000 nM on μ-opioid receptor and 95.3 nM on δ-opioid receptor [1]. Further, the inhibition in vivo at 150 µmol/kg in assay [3] was 40%.

In the case of `CCN1CCN(C(=Nc2cccc(F)c2)c2ccc(C(=O)N(CC)CC)cc2)CC1` [Compound 9, N,N-diethyl-4-[(4-ethyl-1-piperazinyl)[(3-fluorophenyl)imino]methyl]-benzamide], the figures for the Ki on μ-opioid receptor and at δ-opioid receptor [1] were above 10000 nM and 58.5 nM, respectively. The inhibition at 25 µM on δ-opioid receptor [2] was determined as 97%.

Regarding `CCN1CCN(C(=Nc2cccc(F)c2)c2ccc(C(=O)OC)cc2)CC1` [Compound 33, 4-[(4-ethyl-1-piperazinyl)[(3-fluorophenyl)imino]methyl]-benzoic acid methyl ester], the “δ-Opioid Receptor Binding (% Inhibition), % I @ 25 μM” value on δ-opioid receptor [2] worked out at 100%.

Turning to `CCN1CCN(C(=Nc2cccc(OC)c2)c2ccc(C(=O)OC)cc2)CC1` [Compound 47, 4-[(4-ethyl-1-piperazinyl)[(3-methoxyphenyl)imino]methyl]-benzoic acid methyl ester], the inhibition at 25 µM on δ-opioid receptor [2] was found to be 91%. This compound returned an inhibition in vivo at 150 µmol/kg in assay [3] of 26.7%.

For the compound `CCCN(CCC)C(=O)c1ccc(C(=Nc2cc(Cl)cc(Cl)c2)N2CCN(CC)CC2)cc1` [Compound 12, 4-[[(3,5-dichlorophenyl)imino](4-ethyl-1-piperazinyl)methyl]-N,N-dipropyl-benzamide], the values for the Ki at μ-opioid receptor (setting [4]) and at δ-opioid receptor [1] (setting [5]) were above 10000 nM and 674 nM, respectively. For the same compound, the inhibition at 25 µM on δ-opioid receptor [2] is 98%.
